The values that follow are results of earlier work, collected in publication PMC4918035, “A human and animal model-based approach to investigating the anti-inflammatory profile and potential of the 5-HT2B receptor antagonist AM1030” (Journal of Inflammation (London, England), 2016).

This data set deals with T1, 5-HT2B receptor (Homo sapiens, UniProt P41595).
T1 construct: gene HTR2B
The data set is described as follows: receptor binding (Ki) and functional inhibition (IC50 […]); assay details not described.

T1 sequence (P41595 whole entry): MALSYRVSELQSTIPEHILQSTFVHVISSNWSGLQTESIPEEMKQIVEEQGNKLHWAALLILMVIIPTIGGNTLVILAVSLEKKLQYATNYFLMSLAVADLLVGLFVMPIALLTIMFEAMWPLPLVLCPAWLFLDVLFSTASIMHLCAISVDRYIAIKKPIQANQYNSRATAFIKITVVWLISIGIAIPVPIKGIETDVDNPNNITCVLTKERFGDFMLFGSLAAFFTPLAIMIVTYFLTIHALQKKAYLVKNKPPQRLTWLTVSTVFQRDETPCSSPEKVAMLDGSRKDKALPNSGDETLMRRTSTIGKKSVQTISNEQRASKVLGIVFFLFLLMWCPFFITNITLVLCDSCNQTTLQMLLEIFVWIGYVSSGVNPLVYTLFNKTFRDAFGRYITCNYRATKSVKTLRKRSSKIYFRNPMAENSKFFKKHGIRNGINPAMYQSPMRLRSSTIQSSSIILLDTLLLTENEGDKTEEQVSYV

AM1030: the Ki was 330 nM.
